Results published in US8790898B2 (priority 2008, dated 2014).
Where “and” joins values, the source holds several entries; their conditions need not be identical. Identical values can stand only once. Entries after “also recorded” stand apart in the source; their conditions may differ. Like-named read-outs stand apart in the source and are kept apart here.

Assays:
[1] = target: CBD1, C13K, CBD1/A and C10M peptides and the CBD1-KLH Construct (Human immunodeficiency virus type 1 group M subtype B, UniProt P04578); details: guinea pig, in vivo
[2] = target: CBD1, C13K, CBD1/A and C10M peptides and the CBD1-KLH Construct (Human immunodeficiency virus type 1 group M subtype B, UniProt P04578, E630Q/H625N/T626M); details: guinea pig, in vivo
[3] = system: CBD1, C13K, CBD1/A and C10M peptides and the CBD1-KLH Construct; details: guinea pig, in vivo
[4] = system: HIV-1 BZ 167; format: cell-based
[5] = system: CBD1 peptide and CBD1- and CBM-based peptides; design: species or system BALB/c mice; details: mouse, in vivo
[6] = target: CBD1 peptide (Human immunodeficiency virus type 1 group M subtype B, UniProt P04578, E630Q/H625N/T626M); details: rabbits, 150 μg/injection, CFA, ten days after 5th immunization; against CBD1; reciprocal dilution giving OD450 = 0.1
[7] = system: IgG antibodies in human HIV-1 positive sera; format: binding
[8] = system: primary HIV-1 BZ 167 isolate; format: cell-based; details: rabbit immune serum; dilution resulting 50% inhibition of HIV-1 infection; listed as CBD1
[9] = system: HIV-1 BZ 167; format: cell-based; details: listed as CBD1
[10] = system: CBD1 peptide specific IFN-γ spot forming cells; design: species or system cynomolgus macaques (Macaca fascicularis); details: cynomolgus monkey, in vivo
[11] = system: CBD1 (C18K) and the Tet peptide; design: species or system cynomolgus macaques (Macaca fascicularis); details: cynomolgus monkey, in vivo

Substance: C-S-L-E-Q-I-W-N-N-M-T-W-M-Q-W-D-K [C17K]
- ELISA C10M (titer) [1]: 12,000
- ELISA CBD1 (titer) [2]: 128,000
- Titer (ELISA) [2]: 128,000 and 96,000
- ELISA C13K (titer) [3]: 128,000
- ELISA CBD1/A (titer) [3]: 12,000 and 16,000
- ELISA KLH (titer against the CBD1-KLH construct) [3]: <200
- IgG2/1gG1 ratio [3]: 4.10 and 3.75
- % Inhibition of HIV-1 infection at 200-fold dilution [4]: 59%
- % inhibition of HIV-1 at 200-fold dilution [4]: 75%
- HIV Inhibition (ID50) [4]: 250 and 300
- Neutralizing activity ID50 [4]: 250-fold
- Neutralizing activity ID50 Fold-Dilution [4]: 300-fold
- IgG2/1gG1 ratio [5]: 0.96 and 1.15
- Titer (ELISA) [5]: 256,000 and 384,000
- ELISA C17K ([5]; sc): 1.94 ± 0.28
- ELISA K23M ([5]; sc): <0.20
- ELISA K24W ([5]; sc): <0.20
- ELISA K27M ([5]; sc): 2.91 ± 0.26
- ELISA K27W ([5]; sc): <0.20
- ELISA K27W(G) ([5]; sc): <0.20
- ELISA K30W(G) ([5]; sc): <0.20
- ELISA against the Immunogen (OD) ([5]; sc): 1.22 OD
- ELISA p6362 ([5]; sc): 1.78 ± 0.22
- ELISA titer against C17K ([5]; sc): 1.94 ± 0.45
- IgG2/IgG1 ratio ([5]; sc): 1.08
- Titer (ELISA) [6]: 768,000 and 640,000
- sera found to be positive in ELISA ([7]; another cohort of 75 HIV-1-positive individuals): two
- titer of anti-CBD1 peptide antibodies ([7]; listed as CBD1): 6,400 and 12,800
- HIV Inhibition (ID50) [8]: 250 and 200
- Inhibition of HIV-infection ([9]; 50-fold dilution of guinea pig immune sera (bleeds S5), HIV-1 BZ 167, p24 at 5 days post infection): 66% and 57%
- Inhibition of HIV infection ([9]; 100 fold dilution of guinea pig immune serum (bleeds S5), HIV-1 BZ 162, human CD4+ T lymphocytes): 66% and 57%
- HIV Inhibition (ID50) ([9]; guinea pig immune serum, dilution resulting 50% inhibition of HIV-1 infection): 50 and <50
- immunized animals in each group that developed a significant level of T-cell response against the CBD1 epitope [10]: one out of the three
- macaques that developed high antibody titers [11]: two out of the three; also recorded: one out of the three
